Series [1] deals with OCI-LY10 cells. Briefly: Inhibitory activity on OCI-LY10 cell proliferation (MTS). Type of series: cell-based. Conditions: Homo sapiens, 72 h or 168 h. On the procedure: (§1) The anti-tumor efficacy of the compounds was tested by measuring their inhibitory effects on OCI-LY10 and Mino cell proliferation. OCI-LY10 and Mino cells were cultured in RPM-1640 medium containing […] fetal calf serum. OCI-LY10 and Mino cells were digested, inoculated in a 96-well plate at a cell concentration of 10000 cells/well, and incubated overnight at 37° C., 5% CO2. Compounds of different concentrations (1000 nM, 4-fold dilution, 8 points) were added to the 96-well plate and incubated for 72 h or 168 h at 37° C. and […], and then 20 μL of MTS was added to each well. After incubation for 2 h, 25 μl of 10% SDS was added to each well to terminate the reaction. The absorbance at 490 nm and 650 nm were measured with a microplate reader. IC50 was calculated using GraphPad Prism 5.0.

Series [2] deals with T1, BTK (Homo sapiens, UniProt Q06187).
T1 construct: endogenous in cells; host or cells: Mino cells
Kind of series: BTK degradation activity test in Mino cells (Westernblot or Elisa). Type of series: cell-based. The following applies: 24-72 h incubation. How it is done:
The Mino cell line cells are 0.5˜1 million/well in 6-well plates. The compounds are diluted to different concentrations, added to the plate, and after 24-72 h of incubation, the cells are collected. After the cells were lysed, the total protein concentration in each well was determined with a BCA kit. The amount of BTK is determined using the Westernblot or Elisa method.

Series [3] has as its system Mino cells. Briefly: Inhibitory activity on Mino cell proliferation (MTS). The format is cell-based. The following applies: Homo sapiens, 72 h or 168 h. On the procedure: as §1
Series [4] in a line: Liver microsomal metabolic stability, mouse. The format is in vitro ADME. Conditions: mouse liver microsomes, NADPH, 37° C. How it is done:
(§2) Under the condition of ice bath, 1 mg of human or Mouse liver microparticles was add to PBS (1 mL) buffer, then NADPH (20 μL) was added, and incubated at 37° C. for 5 min. 10 μL of the compound to be tested was added, then suck several times with a pipette and divide into 3 aliquots of 330 μL; each and then samples were taken at 0, 15, 30, 60 and 120 min respectively. 10 μL of the solution was taken with a pipette each time and added to 490 μL of the solution containing the internal standard compound. The resulting solution was vortexed and then placed on ice, and then sampling at another time point continues. All samples were centrifuged at 10,000 rpm for 10 min, and the supernatant was taken for LC/MS testing. The metabolism of the compound in liver microsomes was calculated based on the peak area.
For orientation: Liver microsomes are a subcellular fraction often used to study metabolism.

A short description of series [5]: Liver microsomal metabolic stability, human. Type of series: in vitro ADME. The following applies: human liver microsomes, NADPH, 37° C. How it is done:
as §2

Where only a bound is given, the exact number is not on record here.

The results in this text go back to patent US20260167620A1, “MULTIFUNCTIONAL COMPOUND CAPABLE OF DEGRADING BTK KINASE, AND COMPOSITION AND USE” (HANGZHOU HEALZEN THERAPEUTICS CO., LTD., priority 2021, published 2026).

T1 sequence (Q06187 whole entry): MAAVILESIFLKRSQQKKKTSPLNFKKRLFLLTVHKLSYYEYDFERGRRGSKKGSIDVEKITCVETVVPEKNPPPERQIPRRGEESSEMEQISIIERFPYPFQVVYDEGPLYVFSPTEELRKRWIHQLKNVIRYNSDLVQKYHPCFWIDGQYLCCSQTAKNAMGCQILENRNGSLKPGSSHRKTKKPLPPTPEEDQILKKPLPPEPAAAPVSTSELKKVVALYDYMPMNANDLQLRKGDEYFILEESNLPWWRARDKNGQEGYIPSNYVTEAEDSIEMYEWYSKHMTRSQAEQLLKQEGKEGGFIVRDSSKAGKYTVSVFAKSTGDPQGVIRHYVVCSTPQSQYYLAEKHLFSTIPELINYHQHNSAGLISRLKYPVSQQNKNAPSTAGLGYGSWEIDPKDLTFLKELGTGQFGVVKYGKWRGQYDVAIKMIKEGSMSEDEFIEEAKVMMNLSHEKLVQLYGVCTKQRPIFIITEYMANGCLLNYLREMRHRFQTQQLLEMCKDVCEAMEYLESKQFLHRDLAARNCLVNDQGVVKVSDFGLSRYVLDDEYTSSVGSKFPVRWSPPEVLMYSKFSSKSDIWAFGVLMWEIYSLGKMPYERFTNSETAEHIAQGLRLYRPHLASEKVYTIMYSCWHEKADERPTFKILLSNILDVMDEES

One may read the IC50 as the midpoint of a concentration-inhibition curve. The low end stands for higher potency, the high end for lower potency. Usually DC50 stands for the concentration at which degradation of the target reaches its halfway point. Lower therefore signals a more potent degrader. On to `NC(=O)c1nnc(N2CCCCC2)nc1Nc1ccc(C2CCN(CC3CCN(c4ccc5c(c4)C(=O)N(C4CCC(=O)NC4=O)C5=O)C3)CC2)nn1` (centres unmarked) [Compound 004, 5-((6-(1-((1-(2-(2,6-dioxopiperidin-3-yl)-1,3-dioxoisoindolin-5-yl)pyrrolidin-3-yl)methyl)piperidin-4-yl)pyridazin-3-yl)amino)-3-(piperidin-1-yl)-1,2,4-triazine-6-carboxamide], for which the figures for the IC50 in series [1] and in series [3] were 0.18 nM and 1.15 nM, respectively. Also, the DC50 in series [2] was under 10 nM.

On to `NC(=O)c1nnc(N2CCCCC2)nc1Nc1cnc(C2CCN(CC3CCN(c4ccc5c(c4)C(=O)N(C4CCC(=O)NC4=O)C5=O)C3)CC2)nc1` (centres unmarked) [Compound 005, 5-((2-(1-((1-(2-(2,6-dioxopiperidin-3-yl)-1,3-dioxoisoindolin-5-yl)pyrrolidin-3-yl)methyl)piperidin-4-yl)pyrimidin-5-yl)amino)-3-(piperidin-1-yl)-1,2,4-triazine-6-carboxamide], for which the IC50 was determined as 0.41 nM in series [1] and 2.47 nM in series [3]. The DC50 in series [2] is under 10 nM.

`NC(=O)c1nnc(N2CCCCC2)nc1Nc1ccc(C2CCN(CC3CCN(c4ccc(NC5CCC(=O)NC5=O)cn4)C3)CC2)cc1` (centres unmarked) [Compound 014, 5-((4-(1-((1-(5-((2,6-dioxopiperidin-3-yl)amino)pyridin-2-yl)pyrrolidin-3-yl)methyl)piperidin-4-yl)phenyl)amino)-3-(piperidin-1-yl)-1,2,4-triazine-6-carboxamide]: the IC50 stood at 0.67 nM in series [1] and 4.14 nM in series [3]. The molecule also displayed a 50% degradation concentration (DC50) in series [2] of under 10 nM.

As to `CC(=O)N[C@@H]1CCCN(c2nnc(C(N)=O)c(Nc3ccc(C4CCN(CC5CCN(c6ccc7c(c6)C(=O)N(C6CCC(=O)NC6=O)C7=O)C5)CC4)cc3)n2)C1` (stereo partly drawn) [Compound 016, 3-((R)-3-acetamidopiperidin-1-yl)-5-((4-(1-((1-(2-(2,6-dioxopiperidin-3-yl)-1,3-dioxoisoindolin-5-yl)pyrrolidin-3-yl)methyl)piperidin-4-yl)phenyl)amino)-1,2,4-triazine-6-carboxamide], the “Thalf (min) Mouse” value in series [4] turned out to be 49 min. Besides, the IC50 was found to be 0.32 nM in series [1] and 1.45 nM in series [3]. The molecule also displayed a DC50 in series [2] of under 10 nM. In series [5], the “Thalf (min) Human” value was 37 min.

Take `NC(=O)c1nnc(N2CCOCC2)nc1Nc1ccc(C2CCN(CC3CCN(c4ccc5c(c4)C(=O)N(C4CCC(=O)NC4=O)C5=O)C3)CC2)cc1` (centres unmarked) [Compound 019, 5-((4-(1-((1-(2-(2,6-dioxopiperidin-3-yl)-1,3-dioxoisoindolin-5-yl)pyrrolidin-3-yl)methyl)piperidin-4-yl)phenyl)amino)-3-morpholino-1,2,4-triazine-6-carboxamide]: the IC50 in series [1] came to 1.1 nM; in series [3], 2.13 nM. For the same molecule, in series [2], the DC50 was under 10 nM.

On to `CC(=O)N[C@@H]1CCCN(c2nnc(C(N)=O)c(Nc3ccc(C4CCN(CC5CCN(c6ccc7c(c6)C(=O)N(C6CCC(=O)NC6=O)C7=O)CC5)CC4)cc3)n2)C1` (stereo partly drawn) [Compound 023, 3-((R)-3-acetamidopiperidin-1-yl)-5-((4-(1-((1-(2-(2,6-dioxopiperidin-3-yl)-1,3-dioxoisoindolin-5-yl)piperidin-4-yl)methyl)piperidin-4-yl)phenyl)amino)-1,2,4-triazine-6-carboxamide], for which the “Thalf (min) Mouse” value in series [4] was 59 min. Also, the IC50 in series [1] came out at 0.69 nM; in series [3], 6.75 nM. Also, the DC50 in series [2] was under 10 nM. The “Thalf (min) Human” value in series [5] was 20 min.

In series [1], `NC(=O)c1nnc(N2CCCCC2)nc1Nc1ccc(N2CCC(CN3CCN(c4ccc(N5CCC(=O)NC5=O)cc4)CC3)CC2)nc1` [Compound 048, 5-((6-(4-((4-(4-(2,4-dioxotetrahydropyrimidin-1(2H)-yl)phenyl)piperazin-1-yl)methyl)piperidin-1-yl)pyridin-3-yl)amino)-3-(piperidin-1-yl)-1,2,4-triazine-6-carboxamide] registered an IC50 of 0.61 nM. The molecule also gave a DC50 in series [2] of under 10 nM.

In series [1], `NC(=O)c1nnc(N2CCCCC2)nc1Nc1ccc(N2CCC(CN3CCN(c4ccc(C5CCC(=O)NC5=O)cn4)CC3)CC2)c(F)c1` (centres unmarked) [Compound 053, 5-((4-(4-((4-(5-(2,6-dioxopiperidin-3-yl)pyridin-2-yl)piperazin-1-yl)methyl)piperidin-1-yl)-3-fluorophenyl)amino)-3-(piperidin-1-yl)-1,2,4-triazine-6-carboxamide] gave an IC50 of 1.73 nM. The DC50 in series [2] is under 10 nM.

For `Cc1cc(N2CCN(CC3CCN(c4ccc(Nc5nc(N6CCCCC6)nnc5C(N)=O)cc4F)CC3)CC2)ccc1N1CCC(=O)NC1=O` [Compound 076, 5-((4-(4-((4-(4-(2,4-dioxotetrahydropyrimidin-1(2H)-yl)-3-methylphenyl)piperazin-1-yl)methyl)piperidin-1-yl)-3-fluorophenyl)amino)-3-(piperidin-1-yl)-1,2,4-triazine-6-carboxamide], the IC50 in series [1] worked out at 1.09 nM. Besides, in series [2], the half-maximal degradation concentration (DC50) is under 10 nM.

In the case of `NC(=O)c1nnc(N2CCCCC2)nc1Nc1ccc(N2CCN(CC3CCN(c4ccc(N5CCC(=O)NC5=O)c(F)c4)CC3)CC2)c(F)c1` [Compound 078, 5-((4-(4-((1-(4-(2,4-dioxotetrahydropyrimidin-1(2H)-yl)-3-fluorophenyl)piperidin-4-yl)methyl)piperazin-1-yl)-3-fluorophenyl)amino)-3-(piperidin-1-yl)-1,2,4-triazine-6-carboxamide], the midpoint of inhibition in series [1], the IC50, lay at 0.7 nM. Further, in series [2], the DC50 was under 10 nM.

Take `COc1cc(N2CCC(CN3CCN(c4ccc(Nc5nc(N6CCCCC6)nnc5C(N)=O)cc4F)CC3)CC2)ccc1N1CCC(=O)NC1=O` [Compound 082, 5-((4-(4-((1-(4-(2,4-dioxotetrahydropyrimidin-1(2H)-yl)-3-methoxyphenyl)piperidin-4-yl)methyl)piperazin-1-yl)-3-fluorophenyl)amino)-3-(piperidin-1-yl)-1,2,4-triazine-6-carboxamide]: the IC50 worked out at 0.64 nM in series [1] and 2.3 nM in series [3]. In series [2], this molecule registered a DC50 of under 10 nM.

`NC(=O)c1nnc(N2CCCCC2)nc1Nc1ccc(N2CCN(CC3CCN(c4ccc(C(=O)NC5CCC(=O)NC5=O)c(F)c4)CC3)CC2)c(F)c1` (centres unmarked) [Compound 083, 5-((4-(4-((1-(4-((2,6-dioxopiperidin-3-yl)carbamoyl)-3-fluorophenyl)piperidin-4-yl)methyl)piperazin-1-yl)-3-fluorophenyl)amino)-3-(piperidin-1-yl)-1,2,4-triazine-6-carboxamide]: in series [1], half-maximal inhibition (IC50) required 1.24 nM. This molecule also returned a DC50 in series [2] of under 10 nM.

Molecule `NC(=O)c1nnc(N2CCCCC2)nc1Nc1ccc(N2CCN(CC3CCN(c4ccc(N5CCC(=O)NC5=O)cc4F)CC3)CC2)c(F)c1` [Compound 086, 5-((4-(4-((1-(4-(2,4-dioxotetrahydropyrimidin-1(2H)-yl)-2-fluorophenyl)piperidin-4-yl)methyl)piperazin-1-yl)-3-fluorophenyl)amino)-3-(piperidin-1-yl)-1,2,4-triazine-6-carboxamide] showed an IC50 in series [1] of 0.7 nM. In series [2], this molecule registered a DC50 of under 10 nM.

As to `NC(=O)c1nnc(N2CCCCC2)nc1Nc1ccc(N2CCN(CC3CCN(c4ccc(NC5CCC(=O)NC5=O)c(F)c4)CC3)CC2)c(F)c1` (centres unmarked) [Compound 088, 5-((4-(4-((1-(4-((2,6-dioxopiperidin-3-yl)amino)-3-fluorophenyl)piperidin-4-yl)methyl)piperazin-1-yl)-3-fluorophenyl)amino)-3-(piperidin-1-yl)-1,2,4-triazine-6-carboxamide], in series [1], the IC50 was 0.66 nM. In addition, in series [2], the DC50 was under 10 nM.

Take `CC(=O)N[C@@H]1CCCN(c2nnc(C(N)=O)c(Nc3ccc(N4CCN(CC5CCN(c6ccc(N7CCC(=O)NC7=O)c(C)c6)CC5)CC4)c(F)c3)n2)C1` [Compound 090, (R)-3-(3-acetamidopiperidin-1-yl)-5-((4-(4-((1-(4-(2,4-dioxotetrahydropyrimidin-1(2H)-yl)-3-methylphenyl)piperidin-4-yl)methyl)piperazin-1-yl)-3-fluorophenyl)amino)-1,2,4-triazine-6-carboxamide]: the “Thalf (min) Mouse” value in series [4] is recorded as 63 min. Further, the IC50 in series [1] stood at 0.89 nM; in series [3], 1.94 nM. Also, in series [2], the DC50 was under 10 nM. Further, the “Thalf (min) Human” value in series [5] stood at 78 min.

As to `NC(=O)c1nnc(N2CCOCC2)nc1Nc1ccc(N2CCN(CC3CCN(c4ccc(C(=O)NC5CCC(=O)NC5=O)nc4)CC3)CC2)c(F)c1` (centres unmarked) [Compound 100, 5-((4-(4-((1-(6-((2,6-dioxopiperidin-3-yl)carbamoyl)pyridin-3-yl)piperidin-4-yl)methyl)piperazin-1-yl)-3-fluorophenyl)amino)-3-morpholino-1,2,4-triazine-6-carboxamide], the IC50 in series [1] was 0.39 nM; in series [3], 3.83 nM. The molecule also yielded a DC50 in series [2] of under 10 nM.
